Assay type in all cases: cell-based
For test [1], the target named is T1, 5-HT2A receptor (Homo sapiens, UniProt P28223). The experiment in a line: Calcium mobilization (Ca++ flux) assay, agonist mode, 5-HT2A. Conditions: for 5-HT2A receptor, Ca++ Flux % activation @30 μM: 30 μM compound, relative to MAX control 0.1 μM serotonin; for EC50: agonist mode, FLIPR calcium mobilization. As for the experimental part:
(§1) The Calcium No-Wash^PLUS assay monitors the activation of a GPCR via Gq secondary messenger signaling in a live cell, non-imaging assay format. Calcium mobilization in PathHunter® cell lines or other cell lines stably expressing Gq-coupled GPCRs is monitored using a calcium-sensitive dye that is loaded into cells. GPCR activation by a compound result in the release of calcium from intracellular stores and an increase in dye fluorescence that is measured in real-time. Cell lines expressing the GPCR of interest were expanded from freezer stocks according to standard procedures. Cells were seeded in a total volume of 20 μL into black-walled, clear-bottom, Poly-D-lysine coated 384-well microplates and incubated at 37° C. for the appropriate time prior to testing. Assays were performed in 1×Dye Loading Buffer consisting of 1× Dye, 1× Additive A and 2.5 mM Probenecid in HBSS/20 mM Hepes. Probenicid was prepared fresh. Cells were loaded with dye prior to testing. Media was aspirated from cells and replaced with 20 μL Dye Loading Buffer. Cells were incubated for 30-60 minutes at 37° C. For agonist determination, cells were incubated with sample to induce response. After dye loading, cells were removed from the incubator and 10 μL HBSS/20 mM Hepes was added. 3× vehicle was included in the buffer when performing agonist dose curves to define the EC80 for subsequent antagonist assays. Cells were incubated for 30 minutes at room temperature in the dark to equilibrate plate temperature. Intermediate dilution of sample stocks was performed to generate 4× sample in assay buffer. Compound agonist activity was measured on a FLIPR Tetra (MDS). Calcium mobilization was monitored for 2 minutes and 10 μL 4× sample in HBSS/20 mM Hepes was added to the cells 5 seconds into the assay. Compound activity data was analyzed using CBIS data analysis suite (ChemInnovation, CA). For agonist mode assays, percentage activity is calculated using the following formula:
% Activity=100%×(mean RFU of test sample−mean RFU of vehicle control)/(mean MAX RFU control ligand−mean RFU of vehicle control).
In these studies, the MAX RFU was generated by using 0.1 μM serotonin for the calcium mobilization assay.
A general note: Calcium flux is commonly read through the fluorescence of an indicator in the cells.

For test [2], the target named is T1, 5-HT2A receptor. The experiment in a line: PathHunter β-Arrestin assay, agonist mode, 5-HT2A. As for the experimental part:
The PathHunter® β-Arrestin assay monitors the activation of a GPCR in a homogenous, non-imaging assay format using a technology developed by DiscoverX called Enzyme Fragment Complementation (EFC) with β-galactosidase (β-Gal) as the functional reporter. […] EA is fused to β-Arrestin and PK is fused to the GPCR of interest. When the GPCR is activated and β-Arrestin is recruited to the receptor, ED and EA complementation occurs, restoring β-Gal activity which is measured using chemiluminescent PathHunter® Detection Reagents. PathHunter cell lines (DiscoveRx Eurofins) were expanded from freezer stocks according to standard procedures. Cells were seeded in a total volume of 20 μL into white walled, 384-well microplates and incubated at 37° C. for the appropriate time prior to testing. For agonist determination, cells were incubated with sample to induce response. Intermediate dilution of sample stocks was performed to generate 5× sample in assay buffer. 5 μL of 5× sample was added to cells and incubated at 37° C. or room temperature for 90 to 180 minutes. Vehicle concentration was 1%. β-Arrestin assay signal was generated through a single addition of 12.5 or 15 μL (50% v/v) of PathHunter Detection reagent cocktail, followed by a one-hour incubation at room temperature. Microplates were read following signal generation with a PerkinElmer Envision™ instrument for chemiluminescent signal detection. Compound activity was analyzed using CBIS data analysis suite (ChemInnovation, CA). For agonist mode assays, percentage activity was calculated using the following formula:
% Activity=100%×(mean RLU of test sample−mean RLU of vehicle control)/(mean MAX control ligand−mean RLU of vehicle control).
In these studies, the MAX control ligand response was generated using 1-10 μM serotonin.

For test [3], the target named is 5-HT2B receptor (Homo sapiens, UniProt P41595). The experiment in a line: Calcium mobilization (Ca++ flux) assay, agonist mode, 5-HT2B. The protocol:
as §1, with “Media was aspirated from cells and replaced with 20 μL Dye Loading Buffer. Cells were incubated for 30-60 minutes at 37° C. For agonist determination, cells were incubated with sample to induce response. After dye loading, cells were removed from the incubator and 10 μL HBSS/20 mM Hepes was added. 3× vehicle was included in the buffer when performing agonist dose curves to define the EC80 for subsequent antagonist assays. Cells were incubated for 30 minutes at room temperature in the dark to equilibrate plate temperature. Intermediate dilution of sample stocks was performed to generate 4× sample in assay buffer.” left out, “formula: […]” for “formula:”

For test [4], the target named is T2, 5-HT2C receptor (Homo sapiens, UniProt P28335).
T2 sequence (P28335 33-458): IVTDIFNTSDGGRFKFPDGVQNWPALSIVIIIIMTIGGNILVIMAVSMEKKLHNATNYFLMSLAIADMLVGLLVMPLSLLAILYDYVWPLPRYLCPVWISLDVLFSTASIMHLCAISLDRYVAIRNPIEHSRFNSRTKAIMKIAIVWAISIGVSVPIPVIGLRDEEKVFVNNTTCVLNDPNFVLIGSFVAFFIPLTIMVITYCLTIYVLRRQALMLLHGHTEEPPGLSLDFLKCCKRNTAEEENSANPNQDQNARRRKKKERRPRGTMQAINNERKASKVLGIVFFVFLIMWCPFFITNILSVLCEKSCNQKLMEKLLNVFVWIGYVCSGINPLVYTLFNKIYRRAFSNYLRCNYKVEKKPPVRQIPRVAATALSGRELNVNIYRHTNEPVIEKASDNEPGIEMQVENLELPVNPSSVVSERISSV
The experiment in a line: Calcium mobilization (Ca++ flux) assay, agonist mode, 5-HT2C. As for the experimental part:
as §1, with “Media was aspirated from cells and replaced with 20 μL Dye Loading Buffer. Cells were incubated for 30-60 minutes at 37° C. For agonist determination, cells were incubated with sample to induce response. After dye loading, cells were removed from the incubator and 10 μL HBSS/20 mM Hepes was added. 3× vehicle was included in the buffer when performing agonist dose curves to define the EC80 for subsequent antagonist assays. Cells were incubated for 30 minutes at room temperature in the dark to equilibrate plate temperature. Intermediate dilution of sample stocks was performed to generate 4× sample in assay buffer.” left out, “formula: […]” for “formula:”

T1 sequence (P28223 whole entry): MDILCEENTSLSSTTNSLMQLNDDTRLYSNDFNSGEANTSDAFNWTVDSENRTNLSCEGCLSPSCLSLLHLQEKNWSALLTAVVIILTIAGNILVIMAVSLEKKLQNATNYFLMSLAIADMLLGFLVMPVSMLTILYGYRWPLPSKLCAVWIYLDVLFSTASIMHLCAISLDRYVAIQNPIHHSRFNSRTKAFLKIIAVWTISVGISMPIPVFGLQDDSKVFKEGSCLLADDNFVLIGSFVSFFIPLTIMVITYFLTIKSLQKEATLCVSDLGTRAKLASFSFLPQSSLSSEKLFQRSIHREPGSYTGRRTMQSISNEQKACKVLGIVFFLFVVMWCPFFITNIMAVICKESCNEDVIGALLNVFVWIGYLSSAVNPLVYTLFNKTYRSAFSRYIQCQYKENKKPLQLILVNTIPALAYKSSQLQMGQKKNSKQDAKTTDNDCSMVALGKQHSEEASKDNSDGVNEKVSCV
Chain of 5-HT2B receptor (P41595 whole entry): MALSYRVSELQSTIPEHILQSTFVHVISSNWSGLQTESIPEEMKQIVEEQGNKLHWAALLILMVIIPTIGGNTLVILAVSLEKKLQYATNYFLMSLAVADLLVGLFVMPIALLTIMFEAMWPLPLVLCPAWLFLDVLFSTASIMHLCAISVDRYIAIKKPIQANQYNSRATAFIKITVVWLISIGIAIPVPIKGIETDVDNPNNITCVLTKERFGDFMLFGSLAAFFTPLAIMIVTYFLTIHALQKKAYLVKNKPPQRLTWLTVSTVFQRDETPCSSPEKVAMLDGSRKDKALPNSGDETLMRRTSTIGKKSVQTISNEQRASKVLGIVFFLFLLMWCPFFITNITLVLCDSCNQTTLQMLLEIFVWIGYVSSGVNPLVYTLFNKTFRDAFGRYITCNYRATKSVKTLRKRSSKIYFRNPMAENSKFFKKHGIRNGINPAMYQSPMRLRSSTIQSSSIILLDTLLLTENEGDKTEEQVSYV

Take `COc1cc(S(C)(=N)=O)c(OC)cc1CCNCc1cc(C)cc(Cl)c1` (single isomer, unassigned) [Compound 2, (4-(2-((3-chloro-5-methylbenzyl)amino)ethyl)-2,5-dimethoxyphenyl)(imino)(methyl)-λ^6-sulfanone]: in test [1], the “5-HT2A receptor, Ca++ Flux % activation @30 μM” value is listed as “NA/57%”.
The EC50 is the concentration needed to bring the measured effect to its halfway point. As to `COc1cc(S(C)(=N)=O)c(OC)cc1CCNCc1cc(C)cc(Cl)c1` (single isomer, unassigned) [Compound 3, (4-(2-((3-chloro-5-methylbenzyl)amino)ethyl)-2,5-dimethoxyphenyl)(imino)(methyl)-λ^6-sulfanone], the 50% effective concentration (EC50) was 13.6 nM in test [2], more than 1000 nM in test [3], 2.4 nM in test [1] and 1490 nM in test [4]. In test [1], the “5-HT2A receptor, Ca++ Flux % activation @30 μM” value is recorded as 78%.
Regarding `COc1cc(S(C)(=N)=O)c(OC)cc1CCNCc1cc(C)cc(Cl)c1` (stereo not shown) [Compound 1, (4-(2-((3-chloro-5-methylbenzyl)amino)ethyl)-2,5-dimethoxyphenyl)(imino)(methyl)-λ^6-sulfanone], the values for the EC50 in test [2], in test [3] and in test [1] were 25 nM, more than 1000 nM and 4.1 nM, respectively. In addition, in test [1], the “5-HT2A receptor, Ca++ Flux % activation @30 μM” value stood at 102%.
For `COc1cc(S(C)(=N)=O)c(OC)cc1CCNCc1cc(C)cc(Cl)n1` (stereo not shown) [Compound 4, (4-(2-(((6-chloro-4-methylpyridin-2-yl)methyl)amino)ethyl)-2,5-dimethoxyphenyl)(imino)(methyl)-λ^6-sulfanone], in test [1], the “5-HT2A receptor, Ca++ Flux % activation @30 μM” value is listed as “NA/67%”.
In the case of `COc1cc(S(C)(=N)=O)c(OC)cc1CCNCc1ccccc1OC` (stereo not shown) [Compound 5, (2,5-dimethoxy-4-(2-((2-methoxybenzyl)amino)ethyl)phenyl)(imino) (methyl)-λ^6-sulfanone], the concentration for a half-maximal effect (EC50) turned out to be 3.2 nM in test [2], 1.7 nM in test [1] and 3.6 nM in test [4]. Moreover, in test [1], the “5-HT2A receptor, Ca++ Flux % activation @30 μM” value is reported as 111%.
In the case of `COc1cc(S(C)(=N)=O)c(OC)cc1CCNCc1ccccc1O` (stereo not shown) [Compound 6, (4-(2-((2-hydroxybenzyl)amino)ethyl)-2,5-dimethoxyphenyl)(imino)(methyl)-λ^6-sulfanone], in test [1], the “5-HT2A receptor, Ca++ Flux % activation @30 μM” value is on record as “NA/ 82%”.

(Values after patent US20240366542A1, “S[…] SEROTONIN RECEPTORS” (ATAI Therapeutics, Inc., priority 2022, published 2024).)
